Measurements taken from PubChem BioAssay (NCI).
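Five concentrations, 48 hours, 96-well plates. At the GI50, growth is halved. At the TGI there is no net growth.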

Tests used:
Test in all cases: inhibition of tumour cell growth, NCI panel, 48 h
[1] = system: 786-0 renal
[2] = system: BT-549 breast
[3] = system: HCT-116 colon
[4] = system: HT29 colon
[5] = system: IGROV1 ovarian
[6] = system: MCF7 breast
[7] = system: NCI-H460 lung
[8] = system: SNB-19 CNS
[9] = system: T-47D breast
[10] = system: U251 CNS

| SMILES | GI50 [1] [nM] | TGI [1] [µM] | GI50 [2] [nM] | TGI [2] [µM] | GI50 [3] [nM] | TGI [3] [µM] | GI50 [4] [nM] | TGI [4] [µM] | GI50 [5] [µM] | TGI [5] [µM] | GI50 [6] [nM] | TGI [6] [µM] | GI50 [7] [nM] | TGI [7] [µM] | GI50 [8] [µM] | TGI [8] [µM] | GI50 [9] [µM] | TGI [9] [µM] | GI50 [10] [nM] | TGI [10] [µM] |
| --- | --- | --- | --- | --- | --- | --- | --- | --- | --- | --- | --- | --- | --- | --- | --- | --- | --- | --- | --- | --- |
| COc1ccc(/C=N/NC(=O)Cn2c(-c3ccc(S(C)(=O)=O)cc3)nc3cc(Cl)ccc32)cc1 | 1660 | > 50 | 2740 | 48.5 | 445 | > 50 | 689 | 7.19 | 3.63 | > 50 | 1920 | > 50 | 1510 | > 50 | 1.53 | > 50 | 3.22 | > 50 | 1160 | > 50 |
| Cc1ccc(C2=Nc3ccccc3SC(c3cccc([N+](=O)[O-])c3)C2)cc1 (stereo not given) |  | 27 |  | 83.6 |  | 20.8 |  | > 100 |  | > 100 |  | > 100 |  | > 100 |  | > 100 |  | 72.5 |  | 16.9 |
| COc1ccc2cc(-c3c(-c4ccncc4)nc(-c4ccc(S(C)=O)cc4)n3C)ccc2c1 (stereo not given) | 16700 | > 25 | 21100 | > 25 | 19100 | > 25 | 9060 | > 25 | > 25 | > 25 | > 19600 | > 25 | 24800 | > 25 | > 20.8 | > 25 | 7.92 | 24.6 | > 25000 | > 25 |
| COc1ccc(-c2cc(=O)c3c(OC)c(OC)c(OC)c(OC)c3o2)cc1 |  | > 100 |  | > 100 |  | > 100 |  | > 100 |  | > 100 |  | > 100 |  | > 100 |  | > 100 |  | 59.5 |  | > 100 |
| O=C(Nc1cccc(Nc2ncc(Br)c(NCCc3cnc[nH]3)n2)c1)N1CCCC1 | 9360 | 32.6 | 2040 | 13 | 1560 | > 60 | 3850 | 24.2 | 3.23 | 28.8 | 1190 | 17.7 | 3680 | 15 | 9.02 | > 61.4 | 4.43 | 25.5 | 5220 | 45.8 |
| C[C@@H]1O[C@@H](O[C@H]2CC[C@@]3(C)[C@H](CCC4[C@@H]3C(O)C[C@]3(C)[C@@H](c5ccc(=O)oc5)CC[C@]43O)C2)[C@H](O)[C@H](O)[C@H]1O (stereo not given in full) | 4.09 | 0.0169 | < 3.25 | 0.00448 | < 3.25 | 0.00544 | 4.81 | 0.00975 | 0.0065 | 0.0237 | 8.28 | 0.0659 | < 3.25 | 0.00509 | 0.0108 | 0.0357 | < 0.00325 | 0.0241 | 5.2 | 0.00974 |
| O=C(O)COc1c(Cl)cc(Cl)c2cccnc12 |  | > 100 |  | > 100 |  | > 100 |  | > 100 |  | > 100 |  | > 100 |  | > 100 |  | > 100 |  | > 100 |  | > 100 |
| Cc1cccc(NC(=O)c2sc3nc4c(cc3c2N)CN(Cc2ccccc2)CC4)c1C | 197 | 28.5 | 304 | > 50 | 227 | > 50 | 147 | 1.6 | 0.337 | > 50 | 151 | > 50 | 196 | > 50 | 0.283 | > 50 | 0.226 | > 50 | 251 | > 50 |
| COc1ccc(OC)c(Cn2cc3c(c2)-c2oncc2CC3)c1 | 5490 | > 63.6 | 4050 | > 100 | 3320 | 39 | 2350 | 10.9 | 3.87 | > 100 | 3020 | > 81.9 | 3260 | 17.7 | 4.74 | > 100 | 7.1 | > 100 | 3540 | > 100 |
| CSC(=S)N/N=C(\C)c1cccc(C)n1 |  | 28 |  | 57.7 |  | 1.84 |  | > 47.3 |  | 18 |  | > 13.2 |  | 9.79 |  | > 100 |  | > 67.5 |  | 33.8 |
| CCOc1nc(N)nc(C)c1N=Nc1ccc(Cl)cc1 |  | > 100 |  | > 100 |  | > 100 |  | > 100 |  | > 100 |  | > 100 |  | > 100 |  | > 100 |  | > 100 |  | > 100 |
| Cc1cc(N(CCC#N)CCC#N)ccc1/C=C1N=C(/C=C\c2ccccc2)N(c2ccc(Cl)cc2)C\1=O |  | > 100 |  | > 100 |  | > 100 |  | > 100 |  | > 100 |  | > 100 |  | > 100 |  | > 100 |  | > 100 |  | > 100 |
| COC(=O)c1nc(-c2ccccc2)oc1S(=O)(=O)n1nc(C)cc1N | 12500 | 25.6 | 10800 | 23.2 | 4730 | 17.6 | 16400 | 36.5 | 15.7 | 36.5 | 6950 | 27.5 | 17600 | 36.3 | 15.6 | 34.3 | 3.84 | 18.3 | 16500 | 30.8 |
| CCCCCn1sc(=O)n(Cc2ccc(CNC(=O)OCc3ccc4cccc(O)c4n3)cc2)c1=O | 1170 | 2.89 | 1440 | 3.65 | 419 | 2.69 | 1890 | 3.35 | 1.17 | 2.65 | 1340 | 3.7 | 1800 | 3.78 | 4.44 | 16.7 | 1.79 | 4.52 | 1770 | 3.45 |
| CCN1C(=O)N(CC)C2C1NN=c1s/c(=C\c3ccccc3Br)c(=O)n12 (stereo not given) | 52.5 | 37 | 32.7 | 17.1 | 30.2 | 11.6 | 34.8 | 14 | 0.0408 | 21.8 | 32.8 | 16.5 | 33.7 | 4.14 | 0.052 | > 67.9 | 13.5 | 57.9 | 41.8 | 22.3 |
